Where two headings read alike, the source gives them in different places. *1 amine or outer side, *2 acyl side, *3 side chain or, on linkers, in order; H or OH if unused. Where a SMILES comes first, the peptide text is derived from it. Where no end group is shown, it is not given here. [ ]: non-standard residue; d: D form. The star is where a group is joined. Acca(2-Et,1R,2R) = CC[C@@H]1C[C@]1(N)C(=O)O; CH2(1-naphthyl) = c1ccc2c(C*)cccc2c1; Glutaryl = O=C(CCCC(=O)[*:2])[*:1]; Hyp = O=C(O)[C@@H]1C[C@@H](O)CN1; NMeI = CC[C@H](C)[C@H](NC)C(=O)O; AllylGly = C=CC[C@H](N)C(=O)O; Chg = N[C@H](C(=O)O)C1CCCCC1; Suc = O=C(CCC(=O)[*:2])[*:1]; Tle = CC(C)(C)[C@H](N)C(=O)O; X5 = CC(C)(C)c1ccc(C*)cc1; Ac5c = NC1(C(=O)O)CCCC1; Nva = CCC[C@H](N)C(=O)O; X1 = c1ccc2cc(C*)ccc2c1; X4 = Brc1cc(Br)cc(C*)c1; Abu = CC[C@H](N)C(=O)O; Ac3c = NC1(C(=O)O)CC1; OBn = c1ccc(CO*)cc1; X2 = Brc1cccc(C*)c1; X3 = CC(=O)OCC(=O)*; Bn = c1ccc(C*)cc1
Target: T1, HCV NS3 protease type 1b/NS4A cofactor peptide (Hepatitis C virus genotype 1b, UniProt P26663)
T1 construct: recombinant HCV NS3 protease (amino acid 1027 to 1206) was cloned in the pET11d bacterial expression vector; made in house; host or cells: E. coli BL21(DE3)pLysS
Assay: Recombinant HCV NS3 protease/NS4A cofactor peptide radiometric assay
Type: biochemical, HCV genotype 1b
Conditions: read-out: IC50
Method: Recombinant HCV NS3 Protease/NS4A Cofactor Peptide Radiometric Assay.
The enzyme was stored at −80° C., thawed on ice and diluted just prior to use in the assay buffer containing the NS4A cofactor peptide.
The substrate used for the NS3 protease/NS4A cofactor peptide radiometric assay, DDIVPC-SMSYTW [SEQ. ID NO. 2], is cleaved between the cysteine and the serine residues by the enzyme. The sequence DDIVPC-SMSYTW [SEQ. ID NO. 2] corresponds to the NS5A/NS5B natural cleavage site in which the cysteine residue in P2 has been substituted for a proline. The peptide substrate DDIVPC-SMSYTW [SEQ. ID NO. […] ID NO. […] [SEQ. ID NO. 5] (molar ratio enzyme: cofactor 1:100) in the absence or presence of inhibitors. The separation of substrate from products is performed by adding avidin-coated agarose beads to the assay mixture followed by filtration. […] ID NO. 4] product found in the filtrate allows for the calculation of the percentage of substrate conversion and of the percentage of inhibition.
Tris and Tris-HCl (UltraPure) were obtained from Gibco-BRL. Glycerol (UltraPure), MES and BSA were purchased from Sigma. TCEP was obtained from Pierce, DMSO from Aldrich and NaOH from Anachemia.
Assay buffer: 50 mM Tris HCl, pH 7.5, 30% (w/v) glycerol, 1 mg/mL BSA, 1 mM TCEP (TCEP added just prior to use from a 1 M stock solution in water).
Substrate: […] [SEQ. ID NO.
ID NO. 3] (˜1 nM final concentration).
The assay was performed in a 96-well polypropylene plate from Costar. Each well contained:
20 μL substrate/tracer in assay buffer;
10 μL±inhibitor in 20% DMSO/assay buffer;
10 μL NS3 protease 1b/NS4 cofactor peptide (molar ratio 1:100).
Blank (no inhibitor and no enzyme) and control (no inhibitor) were also prepared on the same assay plate.
The enzymatic reaction was initiated by the addition of the enzyme/NS4A peptide solution and the assay mixture was incubated for 40 min at 23° C. under gentle agitation. Ten (10) μL of 0.5N NaOH were added and 10 μL 1 M MES, pH 5.8 were added to quench the enzymatic reaction.
Twenty (20) μL of avidin-coated agarose beads (purchased from Pierce) were added in a Millipore MADP N65 filtration plate. The quenched assay mixture was transferred to the filtration plate, and incubated for 60 min at 23° C. under gentle agitation.
The plates were filtered using a Millipore MultiScreen Vacuum Manifold Filtration apparatus, and 40 μL of the filtrate was transferred in an opaque 96-well plate containing 60 μL of scintillation fluid per well.
The % inhibition was calculated with the following equation:
100-[(countsinh-countsblank)/(countsctl-countsblank)×100]

[1] = Table 2, unmarked values: NS3 protease/NS4A cofactor peptide radiometric assay
[2] = Table 1, unmarked values: NS3 protease/NS4A cofactor peptide radiometric assay

T1 sequence (P26663 1027-1206, other chains not shown): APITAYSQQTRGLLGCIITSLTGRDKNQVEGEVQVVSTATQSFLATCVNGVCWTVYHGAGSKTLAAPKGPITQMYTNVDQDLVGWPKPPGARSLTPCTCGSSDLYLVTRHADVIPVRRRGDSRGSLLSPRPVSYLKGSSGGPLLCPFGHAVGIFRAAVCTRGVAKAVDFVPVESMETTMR

Compound | IC50 [1] | IC50 [2] | further results
CC(=O)N[C@H](C(=O)N[C@H](C(=O)N1C[C@H](OCc2cccc3ccccc23)C[C@H]1C(=O)NC1(C(=O)O)CC1)C1CCCCC1)C1CCCCC1 [compound 231] (Ac-[Chg][Chg][Hyp](CH2(1-naphthyl))[Ac3c]-OH) | 2.6 µM | – | –
CCC[C@H](NC(=O)[C@@H]1C[C@@H](OCc2ccc3ccccc3c2)CN1C(=O)[C@@H](NC(=O)[C@@H](NC(=O)[C@@H](CCC(=O)O)NC(=O)[C@H](CC(=O)O)NC(C)=O)[C@@H](C)CC)C(C)C)C(=O)O [compound 213] (Ac-D[dE]IV[Hyp](X1)[Nva]-OH) | 0.036 µM | – | –
CCC[C@H](NC(=O)[C@@H]1C[C@@H](OCc2cccc3ccccc23)CN1C(=O)[C@@H](NC(=O)[C@@H](NC(=O)[C@H](CC(=O)O)NC(C)=O)[C@@H](C)CC)C(C)C)C(=O)O [compound 219] (Ac-DIV[Hyp](CH2(1-naphthyl))[Nva]-OH) | 2.3 µM | – | –
CC[C@H](C)[C@H](NC(=O)[C@H](CC(=O)O)NC(=O)CCC(=O)O)C(=O)N[C@H](C(=O)N1CCC[C@H]1C(=O)N[C@@H](CS)C(=O)O)C(C)C [compound 103] (Suc-DIVPC-OH) | – | 26 µM | –
CCC[C@H](NC(=O)[C@@H]1C[C@@H](OCc2ccc3ccccc3c2)CN1C(=O)[C@@H](NC(=O)[C@@H](NC(=O)[C@H](CC(=O)O)NC(=O)[C@H](CC(=O)O)NC(C)=O)[C@@H](C)CC)C(C)C)C(=O)O [compound 208] (Ac-DDIV[Hyp](X1)[Nva]-OH) | 0.71 µM | – | –
CCC[C@H](NC(=O)[C@@H]1C[C@@H](OCc2ccc(C(C)(C)C)cc2)CN1C(=O)[C@@H](NC(=O)[C@@H](NC(=O)[C@H](CC(=O)O)NC(=O)[C@H](CC(=O)O)NC(C)=O)[C@@H](C)CC)C(C)C)C(=O)O [compound 209] (Ac-DDIV[Hyp](X5)[Nva]-OH) | 2.6 µM | – | –
CC[C@@H]1C[C@]1(NC(=O)[C@@H]1C[C@@H](OCc2ccccc2)CN1C(=O)[C@@H](NC(=O)[C@@H](NC(=O)[C@@H](CCC(=O)O)NC(=O)[C@H](CC(=O)O)NC(C)=O)[C@@H](C)CC)C(C)C)C(=O)O [compound 517] (Ac-D[dE]IV[Hyp](Bn)[Acca(2-Et,1R,2R)]-OH) | – | – | IC50 (Table 5, first line of the cell, NS3 protease/NS4A cofactor peptide radiometric assay (Example 38)): 0.075 µM
CC(=O)OCC(=O)N[C@H](C(=O)N[C@H](C(=O)N1C[C@H](OCc2cccc3ccccc23)C[C@H]1C(=O)NC1(C(=O)O)CC1)C1CCCCC1)C1CCCCC1 [compound 232] (X3-[Chg][Chg][Hyp](CH2(1-naphthyl))[Ac3c]-OH) | 1.4 µM | – | –
CC[C@H](NC(=O)[C@@H]1CCCN1C(=O)[C@@H](NC(=O)[C@@H](NC(=O)[C@H](CC(=O)O)NC(=O)[C@H](CC(=O)O)NC(C)=O)[C@@H](C)CC)C(C)C)C(=O)O [compound 122] (Ac-DDIVP[Abu]-OH) | – | 315 µM | –
CC[C@H](C)[C@H](NC(=O)[C@H](NC(=O)[C@H](CC(=O)O)NC(C)=O)C(C)C)C(=O)N[C@H](C(=O)N1CCC[C@H]1C(=O)N[C@@H](CS)C(=O)O)C(C)C [compound 274] (Ac-D[dV]IVPC-OH) | 7.6 µM | – | –
CCC[C@H](NC(=O)[C@@H]1C[C@@H](OCc2ccccc2)CN1C(=O)[C@@H](NC(=O)[C@@H](NC(=O)[C@H](NC(=O)[C@H](CC(=O)O)NC(C)=O)C(C)C)[C@@H](C)CC)C(C)C)C(=O)O [compound 202] (Ac-D[dV]IV[Hyp](Bn)[Nva]-OH) | 0.93 µM | – | –
Ac-DDIVPC [compound 101] | – | 46 µM | –
CCC[C@H](NC(=O)[C@@H]1CCCN1C(=O)[C@@H](NC(=O)[C@@H](NC(=O)[C@@H](CCC(=O)O)NC(=O)[C@H](CC(=O)O)NC(C)=O)[C@@H](C)CC)C(C)C)C(=O)O [compound 128] (Ac-D[dE]IVP[Nva]-OH) | – | 7.4 µM | –
CC(=O)N[C@H](C(=O)N[C@H](C(=O)N1C[C@H](OCc2cc(Br)cc(Br)c2)C[C@H]1C(=O)NC1(C(=O)O)CC1)C(C)C)C1CCCCC1 [compound 272] (Ac-[Chg]V[Hyp](X4)[Ac3c]-OH) | 27 µM | – | –
CCC[C@H](NC(=O)[C@@H]1CCCN1C(=O)[C@@H](NC(=O)[C@@H](NC(=O)[C@H](CC(=O)O)NC(=O)CCC(=O)O)[C@@H](C)CC)C(C)C)C(=O)O [compound 130] (Suc-DIVP[Nva]-OH) | – | 123 µM | –
CC(=O)N[C@H](C(=O)N[C@H](C(=O)N1C[C@H](OCc2ccccc2)C[C@H]1C(=O)N[C@@H](CS)C(=O)O)C(C)C)C1CCCCC1 [compound 261] (Ac-[Chg]V[Hyp](Bn)C-OH) | 28 µM | – | –
CC(=O)N[C@@H](CC(=O)O)C(=O)N[C@@H](CCC(=O)O)C(=O)N[C@H](C(=O)N[C@H](C(=O)N[C@@H](CCC(=O)OCc1ccccc1)C(=O)NC1(C(=O)O)CC1)C(C)C)C1CCCCC1 [compound 133] (Ac-DE[Chg]VE(OBn)[Ac3c]-OH) | – | 39 µM | –
CCC[C@H](NC(=O)[C@@H]1C[C@@H](OCc2cccc3ccccc23)CN1C(=O)[C@@H](NC(=O)[C@@H](NC(=O)CCCC(=O)O)[C@@H](C)CC)C(C)C)C(=O)O [compound 222] (Glutaryl-IV[Hyp](CH2(1-naphthyl))[Nva]-OH) | 20 µM | – | –
CC(=O)N[C@H](C(=O)N[C@H](C(=O)N1C[C@H](Oc2cccc(Br)c2)C[C@H]1C(=O)NC1(C(=O)O)CC1)C(C)C)C1CCCCC1 [compound 240] | 42 µM | – | –
CC(=O)N[C@@H](CC(=O)O)C(=O)N[C@H](CCC(=O)O)C(=O)N[C@H](C(=O)N[C@@H](CCC(=O)O)C(=O)N[C@@H](CCC(=O)O)C(=O)NC1(C(=O)O)CC1)C1CCCCC1 [compound 132] (Ac-D[dE][Chg]EE[Ac3c]-OH) | – | 36 µM | –
CC(=O)N[C@@H](CC(=O)O)C(=O)N[C@H](CCC(=O)O)C(=O)N[C@H](C(=O)N[C@H](C(=O)N1C[C@H](OCc2cccc3ccccc23)C[C@H]1C(=O)NC1(C(=O)O)CC1)C(C)C)C1CCCCC1 [compound 215] (Ac-D[dE][Chg]V[Hyp](CH2(1-naphthyl))[Ac3c]-OH) | 0.014 µM | – | –
CC[C@H](C)[C@H](NC(=O)[C@H](CC(=O)O)NC(=O)[C@H](CC(=O)O)NC(C)=O)C(=O)N[C@H](C(=O)N1CCC[C@H]1C(=O)NC1(C(=O)O)CCCC1)C(C)C [compound 125] (Ac-DDIVP[Ac5c]-OH) | – | 210 µM | –
CC(=O)N[C@H](C(=O)N[C@H](C(=O)N1C[C@H](OCc2ccccc2)C[C@H]1C(=O)NC1(C(=O)O)CC1)C1CCCCC1)C1CCCCC1 [compound 234] (Ac-[Chg][Chg][Hyp](Bn)[Ac3c]-OH) | 41 µM | – | –
CC[C@H](C)[C@H](NC(C)=O)C(=O)N[C@H](C(=O)N1C[C@H](OCc2cccc3ccccc23)C[C@H]1C(=O)NC1(C(=O)O)CC1)C(C)C [compound 262] (Ac-IV[Hyp](CH2(1-naphthyl))[Ac3c]-OH) | 40 µM | – | –
CC(C)[C@H](NC(=O)[C@@H](NC(=O)CCCC(=O)O)C1CCCCC1)C(=O)N1C[C@H](OCc2cccc3ccccc23)C[C@H]1C(=O)NC1(C(=O)O)CC1 [compound 226] (Glutaryl-[Chg]V[Hyp](CH2(1-naphthyl))[Ac3c]-OH) | 0.76 µM | – | –
CCC[C@H](NC(=O)[C@@H]1C[C@@H](OCc2cccc3ccccc23)CN1C(=O)[C@@H](NC(=O)[C@H]([C@@H](C)CC)N(C)C(=O)CCC(=O)O)C(C)C)C(=O)O [compound 220] (Suc-[NMeI]V[Hyp](CH2(1-naphthyl))[Nva]-OH) | 31 µM | – | –
CC(=O)N[C@H](C(=O)N[C@H](C(=O)N1C[C@H](OCc2cccc(Br)c2)C[C@H]1C(=O)NC1(C(=O)O)CC1)C(C)C)C1CCCCC1 [compound 268] (Ac-[Chg]V[Hyp](X2)[Ac3c]-OH) | 24 µM | – | –
Ac-EDIVPC [compound 102] | – | 59 µM | –
C=CC[C@H](NC(=O)[C@@H]1CCCN1C(=O)[C@@H](NC(=O)[C@@H](NC(=O)[C@H](CC(=O)O)NC(=O)[C@H](CC(=O)O)NC(C)=O)[C@@H](C)CC)C(C)C)C(=O)O [compound 124] (Ac-DDIVP[AllylGly]-OH) | – | 210 µM | –
CC(=O)N[C@@H](CC(=O)O)C(=O)N[C@@H](CC(=O)O)C(=O)N[C@H](C(=O)N[C@H](C(=O)N1CCC[C@H]1C(=O)N[C@@H](CS)C(=O)O)C(C)C)C(C)(C)C [compound 111] (Ac-DD[Tle]VPC-OH) | – | 79 µM | –

Source: US6767991B1, “Hepatitis C inhibitor peptides” (priority 1997, dated 2004)
